{"source": "patent US9499464B2", "about": "“Opsin-binding ligands, compositions and methods of use” (priority 2011, dated 2016)", "key": {"[1]": {"tested_on": "P23H opsin", "assay": "Rhodopsin purification and regeneration (P23H cells treated with compound, regenerated with 9-cis-retinal, 480-500 nm absorbance)", "conditions": "P23H cells, 48 hours, regeneration with 9-cis-retinal (20 μM)"}}}
{"smiles": "CC1(C)CCC(C)(C)[C@H]2CC(=O)C=C21", "note": "[Compound 69a, (+)-4,4,7,7-tetramethyl-5,6,7,7a-tetrahydro-1H-inden-2(4H)-one]", "values": [{"measurement": "melting point", "value": "35 to 38", "unit": "°C"}, {"measurement": "Fold Increase Over Control (480-500 nm absorbance as fold increase over the DMSO control)", "setting": "[1]; compound concentration 20 μM", "value": 2.0, "unit": "fold"}]}
{"smiles": "CC1(C)CCC[C@@]2(C)C(c3ccccc3)=CC(=O)[C@@H]12", "note": "(racemic) [Compound 28, (±)-(3aR,7aS)-3a,7,7-trimethyl-3-phenyl-3a,4,5,6,7,7a-hexahydro-1H-inden-1-one]", "values": [{"measurement": "Fold Increase Over Control (480-500 nm absorbance as fold increase over the DMSO control)", "setting": "[1]; compound concentration 10 μM", "value": 1.7, "unit": "fold"}]}
{"smiles": "CC1(C)CCC[C@@]2(C)C(=O)CC[C@@H]12", "note": "(racemic) [Compound 5, (±)-(3aS,7aR)-4,4,7a-trimethyloctahydro-1H-inden-1-one]", "values": [{"measurement": "Fold Increase Over Control (480-500 nm absorbance as fold increase over the DMSO control)", "setting": "[1]; compound concentration 10 μM", "value": 1.7, "unit": "fold"}]}
{"smiles": "COC(=O)C1=C[C@]2(C)CCCC(C)(C)[C@@H]2C1", "note": "(racemic) [Compound 8, (±)-(3aS,7aS)-methyl 3a,7,7-trimethyl-3a,4,5,6,7,7a-hexahydro-1H-indene-2-carboxylate]", "values": [{"measurement": "Fold Increase Over Control (480-500 nm absorbance as fold increase over the DMSO control)", "setting": "[1]; compound concentration 20 μM", "value": 2.1, "unit": "fold"}]}
{"smiles": "CC1=CC(=O)[C@H]2C(C)(C)CCC[C@@]12C", "note": "(racemic) [Compound 1, (±)-(3aR,7aS)-3,3a,7,7-tetramethyl-3a,4,5,6,7,7a-hexahydro-1H-inden-1-one]", "values": [{"measurement": "Fold Increase Over Control (480-500 nm absorbance as fold increase over the DMSO control)", "setting": "[1]; compound concentration 10 μM", "value": 1.7, "unit": "fold"}]}
{"smiles": "C[C@@H]1CC(=NO)[C@H]2C(C)(C)CCC[C@@]12C", "note": "(racemic) [Compound 16, (±)-(3R,3aS,7aS)-3,3a,7,7-tetramethyloctahydro-1H-inden-1-one oxime]", "values": [{"measurement": "Fold Increase Over Control (480-500 nm absorbance as fold increase over the DMSO control)", "setting": "[1]; compound concentration 20 μM", "value": 2.2, "unit": "fold"}]}
